Data taken from patent publication US11007269B2, “P53 degradation inducing molecule and pharmaceutical composition” (Tokyo University of Science Foundation, priority 2016, dated 2021).

Key:
MDM2 protein = target: T1, MDM2 protein (Mus musculus, UniProt P23804); assay: Western blot of MDM2 protein in liver of mice given the compound; type: in vivo; details: C57BL/6J mice, 48 hours after administration
T1 construct: from tissue; host or cells: liver of C57BL/6J wild-type mice
Description: (§1) In Example 4, degradation (knockdown) of the endogenous wild-type p53 protein and MDM2 protein in mouse individuals in which TIBC-CANDDY_MLN had been administered was evaluated by Western blot analysis.
(§2) TIBC-CANDDY_MLN was dissolved in DMSO immediately before administration, and then dissolved in corn oil (Code No. 25606-55, Nacalai Tesque) so that the concentration of DMSO was 10 vol %, and then a dose of 50 mg/kg body weight or 100 mg/kg body weight was administered intraperitoneally to C57BL/6J wild-type mice (7 to 8 weeks old, male) (CLEA Japan, Inc.) (n=3). As a control, an injection carrier (corn oil containing 10 vol % DMSO) was used. The mice were kept under an environment of ad libitum access to food and water. […]
(§3) The frozen tissue (0.04 g) was triturated, and then 980 μL of 1×TKM tissue lysis buffer (50 mM triethanolamine (pH 7.8), 50 mM KCl, 5 mM MgCl2, 0.25 M sucrose, 1 mM PMSF, protein inhibitors cocktail-EDTA free (Code No. 03969-21, Nacalai Tesque), 1 mM DTT, Recombinant RNase inhibitor 5 μl/mL (40 U/μl, Cat No. 2313A, Lot No. K8402DA, TAKARA Bio)) was added, and dissolved by rotation for 15 minutes (1 rpm, 25° C.). […] The concentration of proteins in the tissue extract was quantified with a spectrophotometer with the tissue extract that had been diluted 20 times using DEPC-treated water. […]

[1] = target: T2, endogenous wild-type p53 protein (Mus musculus, UniProt P02340); assay: Western blot of wild-type p53 protein in liver of mice given the compound; type: in vivo; details: C57BL/6J mice, 48 hours after administration
T2 construct: from tissue; host or cells: liver of C57BL/6J wild-type mice
T2 sequence (P02340 whole entry): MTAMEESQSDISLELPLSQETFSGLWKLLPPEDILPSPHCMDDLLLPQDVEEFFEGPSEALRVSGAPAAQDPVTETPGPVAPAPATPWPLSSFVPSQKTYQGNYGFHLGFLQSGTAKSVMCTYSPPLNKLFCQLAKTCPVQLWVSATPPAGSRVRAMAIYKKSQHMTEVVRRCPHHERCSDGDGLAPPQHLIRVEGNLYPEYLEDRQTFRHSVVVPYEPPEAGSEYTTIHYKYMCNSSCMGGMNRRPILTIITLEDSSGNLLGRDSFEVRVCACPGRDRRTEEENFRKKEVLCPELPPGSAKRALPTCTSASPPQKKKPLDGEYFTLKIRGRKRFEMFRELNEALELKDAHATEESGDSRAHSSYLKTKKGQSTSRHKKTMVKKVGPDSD
Description: as §1, §2, §3

[2] = 50 mg/kg body weight intraperitoneally
[3] = 100 mg/kg body weight intraperitoneally

T1 sequence (P23804 whole entry): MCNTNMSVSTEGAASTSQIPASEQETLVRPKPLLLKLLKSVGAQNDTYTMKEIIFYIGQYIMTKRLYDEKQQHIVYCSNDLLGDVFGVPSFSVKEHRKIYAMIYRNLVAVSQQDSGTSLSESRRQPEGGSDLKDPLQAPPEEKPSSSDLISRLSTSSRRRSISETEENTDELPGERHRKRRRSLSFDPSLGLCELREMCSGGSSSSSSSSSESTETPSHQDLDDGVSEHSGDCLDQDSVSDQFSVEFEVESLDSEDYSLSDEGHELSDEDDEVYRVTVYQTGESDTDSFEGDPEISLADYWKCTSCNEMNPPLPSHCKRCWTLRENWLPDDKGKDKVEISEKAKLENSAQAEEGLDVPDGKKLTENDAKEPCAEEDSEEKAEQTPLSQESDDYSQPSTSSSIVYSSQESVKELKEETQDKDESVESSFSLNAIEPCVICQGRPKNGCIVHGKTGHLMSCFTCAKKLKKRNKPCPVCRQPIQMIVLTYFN

CC(C)C[C@H](NC(=O)CNC(=O)c1cc(Cl)ccc1Cl)C(=O)NCCCCCCC(=O)Nc1ccc(C(=O)/C=C/c2ccc(I)cc2)cc1 [TIBC-CANDDY_MLN]
reduced: amount of MDM2 protein in the liver (MDM2 protein; [2]) | amount of MDM2 protein in the liver (MDM2 protein; [3]) | amount of endogenous wild-type p53 protein in the liver [1, 2] | amount of endogenous wild-type p53 protein in the liver [1, 3]
